# Laboratory results: patent US20070259874A1, “Phosphodiesterase Inhibitors” (priority 2003, published 2007)
row,melting point [°C],SMILES
1,113.5 to 114.9,"COc1ccc(C2=NOC(C)(c3noc(-c4ccc(Cl)c(Cl)c4)n3)C2)cc1OC1CCCC1 (centres unmarked) [Compound No. 79, 3-[3-(3-Cyclopentyloxy-4-methoxyphenyl)-5-methyl-4,5-dihydro-isoxazol-5-yl]-5-(3,4-dichloro-phenyl)-[1,2,4]oxadiazole]"
2,105 to 106,"COc1ccc(C2=NOC(C)(c3noc(C4CC4)n3)C2)cc1OC1CCCC1 (centres unmarked) [Compound No. 60, 3-[3-(3-Cyclopentyloxy-4-methoxyphenyl)-5-methyl-4,5-dihydro-isoxazol-5-yl]-5-cyclopropyl-[1,2,4]oxadiazole]"
3,138.5 to 139,"CCOc1ccccc1-c1nc(C2(C)CC(c3ccc(OC)c(OC4CCCC4)c3)=NO2)no1 (centres unmarked) [Compound No. 59, 3-[3-(3-Cyclopentyloxy-4-methoxyphenyl)-5-methyl-4,5-dihydro-isoxazol-5-yl]-5-(2-ethoxy-phenyl)-[1,2,4]oxadiazole]"
4,121 to 122,"COc1cccc(-c2nc(C3(C)CC(c4ccc(OC)c(OC5CCCC5)c4)=NO3)no2)c1 (centres unmarked) [Compound No. 74, 3-[3-(3-Cyclopentyloxy-4-methoxyphenyl)-5-methyl-4,5-dihydro-isoxazol-5-yl]-5-(3-methoxy-phenyl)-[1,2,4]oxadiazole]"
5,122,"COc1ccc(C2=NOC(C)(c3noc(-c4ccccc4Cl)n3)C2)cc1OC1CCCC1 (centres unmarked) [Compound No. 76, 5-(2-Chlorophenyl)-3-[3-(3-cyclopentyloxy-4-methoxyphenyl)-5-methyl-4,5-dihydro-isoxazol-5-yl]-[1,2,4]oxadiazole]"
